Legend:
T98G glioblastoma cells = assay: Cell viability assay (MTT/resazurin), T98G; format: cell-based; settings: Homo sapiens, read-out: Antiproliferative Activity, GI50
Source text: (§1) Cancer cell lines derived from leukemia (MV4-11 and U937), breast (MCF7 (Rb-positive) and MDA-MB-231(Rb-negative)), and ovarian (A2780, OVCAR5, OAW28, OV90, Cov318, and Cov504) cancers, and glioblastoma (U87, T98G and U251) were acquired from the cell bank at Drug Discovery and Development, University of South Australia, and cultured according to the American Type Culture Collection (ATCC) recommendation in Roswell Park Memorial Institute (RPMI)-1640, Dulbecco’s Modified Eagle’s Medium (DMEM), or Minimum Essential Media (MEM), with 10% fetal bovine serum (Sigma-Aldrich, Castle Hill, NSW, Australia) within a humidified incubator at 37 °C in the presence of 5% CO2.
(§2) The MTT (Life Technologies, Mulgrave, VIC, Australia) and resazurin (Sigma-Aldrich) assays were used to determine the antiproliferative activities of the compounds initially at 1 µM against the cancer cell lines stated above.

[1] = tested on: Cov318 ovarian cancer cells; assay: Cell viability assay (MTT/resazurin), Cov318; format: cell-based; settings: read-out: Antiproliferative Activity, GI50
Source text: as §1, §2

[2] = tested on: MDA-MB-231 breast cancer cells; assay: Cell viability assay (MTT/resazurin), MDA-MB-231; format: cell-based; settings: Homo sapiens, read-out: Antiproliferative Activity, GI50
Source text: as §1, §2

CDK2/cyclin E (CDK2E) = CDK2/cyclin E (CDK2E) (Homo sapiens, UniProt P24941); assay: ADP-Glo kinase assay, CDK2/cyclin E; format: biochemical; settings: apparent Ki from IC50, ADP-Glo
Procedure: (§3) The luminescent ADP-Glo™ assay, which measures the amount of ADP formed in a kinase reaction as described previously, was used to determine the kinase inhibition profile of the compounds. […] Ki values were calculated from their corresponding IC50 values (the concentrations of inhibitors that inhibit the kinase activity by 50%) and the Michaelis–Menten constant (Km) of ATP for each kinase using the Cheng–Prusoff equation as previously stated. In brief, 1 μL of each concentration of the test compounds was added to the respective wells, and to it were added 1 μL of the kinases and their respective substrates, diluted to the desired concentration in kinase reaction buffer ([…] tris base pH 7.5, 20 mM MgCl2, 0.4 µM dithiothreitol, and 0.1 mg/mL bovine serum albumin), and the pH was adjusted by adding 1 μL of a two-fold diluted kinase reaction buffer. To initiate the kinase activity, 1 μL of ATP solution (the concentration varies depending on the type of kinase under investigation) was added to each well, and the mixture was incubated at room temperature (20 to 22 °C) for 30–60 min depending on the kinase being tested. The reaction was then halted, 5 μL of the ADP-Glo reagent was added to each well (removing any unreacted ATP), and it was incubated at room temperature for 40 min. Then, to each well, 10 μL of the kinase detection reagent containing luciferin was added, which was incubated once more at room temperature in the dark for 30 min and the luminescence was measured by an EnVision® multi-label plate reader with an integration time of 1.5 s per well. Positive controls (the wells without the inhibitor) and negative or blank controls (the wells without the inhibitor and the enzyme, but with 1 × kinase reaction buffer) were also determined in 2.5% DMSO.
(§4) The percentage of kinase inhibition was determined using the following equation: % Residual kinase activity=Luminescence in the presence of inhibitor−Luminescence of blank control/Luminescence in the absence of inhibitor−Luminescence of blank control×100%%kinase inhbition=100%−%Residual kinase activity
(§5) Km is defined as the concentration of ATP or the substrate required to produce 50% of the maximal reaction rate in the kinase reaction. Therefore, since we used the concentration of ATP and the substrate at their Km values, Ki simply equals IC50/2 assuming these inhibitors are ATP-competitive based on the Cheng–Prusoff equation: Ki = IC50/(1 + ([ATP]/Km(ATP))) where [ATP] is the ATP concentration used for the IC50 determination and Km(ATP) for each kinase was determined experimentally.

OV90 cells = assay: Colony formation (crystal violet), OV90; format: cell-based; settings: OV90, 10 days
Procedure: Briefly, ovarian cancer cells (i.e., A2780, OVCAR5, and OV90) seeded in six-well plates were adhered for 6 h and treated with 15. The medium that contained the compound was then changed every 72 h. Ten days after treatment, the cells were washed with PBS, fixed, and stained with crystal violet staining solution (0.05% crystal violet, 1% formaldehyde, 1% PBS, and 1% ethanol), and colonies were quantified using ImageJ software (National Institute of Health, Maryland, USA), with data presented as percentages of the control cells.

CDK1/cyclin B (CDK1B) = CDK1/cyclin B (CDK1B) (Homo sapiens, UniProt P06493); assay: ADP-Glo kinase assay, CDK1/cyclin B; format: biochemical; settings: apparent Ki from IC50, ADP-Glo
Procedure: as §3, §4, §5

[3] = tested on: OAW28 ovarian cancer cells; assay: Cell viability assay (MTT/resazurin), OAW28; format: cell-based; settings: Homo sapiens, OAW-28, read-out: Antiproliferative Activity, GI50
Source text: as §1, §2

[4] = tested on: Cov504 ovarian cancer cells; assay: Cell viability assay (MTT/resazurin), Cov504; format: cell-based; settings: read-out: Antiproliferative Activity, GI50
Source text: as §1, §2

[5] = tested on: OVCAR5 ovarian cancer cells; assay: Cell viability assay (MTT/resazurin), OVCAR5; format: cell-based; settings: Homo sapiens, OVCAR-5, read-out: Antiproliferative Activity, GI50
Source text: as §1, §2

Chain of CDK1/cyclin B (CDK1B) (P06493 whole entry): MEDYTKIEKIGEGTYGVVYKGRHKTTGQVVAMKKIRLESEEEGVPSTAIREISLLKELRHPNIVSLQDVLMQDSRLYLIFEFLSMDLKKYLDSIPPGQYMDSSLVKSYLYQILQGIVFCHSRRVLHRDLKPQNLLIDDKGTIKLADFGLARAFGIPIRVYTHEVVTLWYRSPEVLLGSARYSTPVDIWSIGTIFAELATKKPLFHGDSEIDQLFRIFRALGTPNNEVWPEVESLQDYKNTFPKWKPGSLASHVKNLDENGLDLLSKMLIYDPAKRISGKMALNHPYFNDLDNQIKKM
Chain of CDK1/cyclin B (CDK1B) (P14635 whole entry partner): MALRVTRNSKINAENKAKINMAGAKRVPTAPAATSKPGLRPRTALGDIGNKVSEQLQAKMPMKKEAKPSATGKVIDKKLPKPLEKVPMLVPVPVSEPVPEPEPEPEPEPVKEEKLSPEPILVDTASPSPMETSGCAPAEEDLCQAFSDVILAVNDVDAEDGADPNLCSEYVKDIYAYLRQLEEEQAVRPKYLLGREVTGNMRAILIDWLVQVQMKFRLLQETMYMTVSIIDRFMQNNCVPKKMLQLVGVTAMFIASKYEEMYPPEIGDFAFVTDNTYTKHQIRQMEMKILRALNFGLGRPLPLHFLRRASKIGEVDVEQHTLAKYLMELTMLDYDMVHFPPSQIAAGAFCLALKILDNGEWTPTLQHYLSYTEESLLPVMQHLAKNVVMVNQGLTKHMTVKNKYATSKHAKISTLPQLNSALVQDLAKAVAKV

GI50 (T98G glioblastoma cells): 380 nM | GI50 [1]: 488 nM | GI50 [2]: 458 nM | Ki (CDK2/cyclin E (CDK2E)): 5 nM | Ki (CDK1/cyclin B (CDK1B)): 25 nM | GI50 [3]: 534 nM | GI50 [4]: 540 nM | GI50 [5]: 150 nM
SMILES: Cn1cc(-c2nc(Nc3cn[nH]c3)ncc2Cl)cn1 [Compound 15, 5-Chloro-4-(1-methyl-1H-pyrazol-4-yl)-N-(1H-pyrazol-4-yl)pyrimidin-2-amine]
effect on colony formation (OV90 cells; 0.5 µM): partial inhibition | effect on colony formation (OV90 cells; 15 at 0.5 and 2 µM, CYC065 at 0.5 µM): inhibited

Reference: paper PMC10096391, “Discovery of N,4-Di(1H-pyrazol-4-yl)pyrimidin-2-amine-Derived CDK2 Inhibitors as Potential Anticancer Agents: Design, Synthesis, and Evaluation” (Molecules, 2023)
